Structures can show the parent of a compound that is named as a salt.
How the values were obtained:
[1] = test system: PDE4 purified from human colon HT-29 cultured tumor cells; assay: PDE4 inhibition assay; type: biochemical; conditions: HT-29 cell enzyme
HCT116, Colon = assay: Growth inhibition, SRB assay, HCT116; type: cell-based; conditions: Homo sapiens, HCT-116
Source text: A compound's ability to inhibit tumor cell growth can be measured using the HT-29 human colon carcinoma cell line obtained from ATCC. HT-29 cells have previously been characterized as a relevant colon tumor cell culture model (Fogh, J., and Trempe, G. In: Human Tumor Cells in Vitro, J. Fogh (eds.), Plenum Press, New York, pp. 115-159, 1975). HT-29 cells are maintained in RPMI media supplemented with 5% fetal bovine calf serum (Gemini Bioproducts, Inc., Carlsbad, Calif.) and 2 mm glutamine, and 1% antibiotic-antimycotic in a humidified atmosphere of 95% air and 5% CO2 at 37° C. Briefly, HT-29 cells are plated at a density of 500 cells/well in 96 well microtiter plates and incubated for 24 hours at 37° C. prior to the addition of compound. […] After six days in culture, the cells are fixed by the addition of cold trichloroacetic acid to a final concentration of 10% and protein levels are measured using the sulforhodamine B (SRB) colorimetric protein stain assay as previously described by Skehan, P., Storeng, R., Scudiero, D., Monks, A., McMahon, J., Vistica, D., Warren, J. T., Bokesch, H., Kenney, S., and Boyd, M. R., “New Colorimetric Assay For Anticancer-Drug Screening,” J. Natl. Cancer Inst. […]
To show the effectiveness of this screening method on various forms of neoplasia, compounds were tested on numerous cell lines. […] The IC50 values were determined by the SRB assay. […]

[2] = Safety evaluation in exisulind clinical trials; type: in vivo
Procedure: In these exisulind trials and several others involving the drug in other indications, safety was evaluated by monitoring adverse events (AEs), clinical laboratory tests (hematology, serum chemistry, and urinalysis), vital signs (blood pressure, pulse rate, respiratory rate, temperature, and weight), physical examination, and upper endoscopy.

UISO-BCA-1 = assay: Growth inhibition, neutral red assay, UISO-BCA-1; type: cell-based, human; conditions: free base, five days
Procedure: Compound I's activity is not confined to activity against colon cancer cell lines or animal models of colon cancer. It has a broad range of anti-neoplastic effects in various neoplastic cell lines. Various types of human cancer cell lines were propagated under sterile conditions in RPMI 1640 medium with 10% fetal bovine serum, 2 mM L-glutamine and sodium bicarbonate. To determine growth inhibitory effects of Compound I, cells were seeded in 96-well plates at a density of 1000 cells per well. Twenty-four hours after plating, the cells were dosed with various concentrations of the free base of Compound I solubilized in DMSO (final concentration 0.1%). The effect of the drug on tumor cell growth was determined using the neutral red cytotoxicity assay following five days of continuous treatment. Neutral red is a dye that is selectively taken up by viable cells by an ATP-dependent transport mechanism.

SMILES | IC50 [1] [µM] | IC50 (HCT116, Colon) [µM] | apoptosis rates in paired biopsies of polyp and normal colonic tissues ([2]; APC patients) | toxicities in clinical trials ([2]; human, in vivo) | maximum tolerated dose (MTD) ([2]; patients with intact colons) [mg] | maximum tolerated dose (MTD) ([2]; patients with subtotal colectomy) [mg] | maximum tolerated dose (MTD) ([2]; pediatric patients) [mg] | GI50 (UISO-BCA-1; Homo sapiens, 120 h) [µM] | GI90 μM, UISO-BCA-1 (UISO-BCA-1) [µM]
CC1=C(CC(=O)O)c2cc(F)ccc2/C1=C\c1ccc(S(C)(=O)=O)cc1 [Exisulind, 5-fluoro-2-methyl-1-(p-methylsulfonylbenzylidene)-3-indenylacetic acid] | 181 | 90 | increased apoptosis rates in polyp, but not normal colonic tissues | did not demonstrate any blood dyscrasia, dose-limiting vomiting, or neurological or renal toxicities | 400 | 600 | 350 | – | –
CC1=C(CC(=O)NCc2ccccc2)c2cc(F)ccc2/C1=C\c1ccncc1 [Compound I, (Z)-5-fluoro-2-methyl-(4-pyridylidene)-3-(N-benzyl)indenylacetamide hydrochloride] | – | – | – | – | – | – | – | 1.5 | 4.7
